Data as given in PMC4870679, “A novel pathway for fungal D-glucuronate catabolism contains an L-idonate forming 2-keto-L-gulonate reductase” (Scientific Reports, 2016).

Tests used:
[1] = system: GluC (2-keto-L-gulonate reductase); assay: NADH consumption at […] nm, Konelab analyser; type: biochemical, Aspergillus niger; settings: 400 uM NADH, 50 mM Tris pH 7
[2] = system: GluC (2-keto-L-gulonate reductase); assay: NADH formation at […] nm, Konelab analyser; type: biochemical, Aspergillus niger; settings: 400 uM NAD+, 50 mM Tris pH 8; reverse direction

| SMILES | Km [1] [mM] | Km [2] [mM] |
| --- | --- | --- |
| O=C(O)C(=O)[C@@H](O)[C@H](O)[C@@H](O)CO [2-keto-L-gulonate] | 30 |  |
| O=C(O)[C@H](O)[C@@H](O)[C@H](O)[C@@H](O)CO [L-idonate] |  | 20 |
